Data: ChEMBL document CHEMBL4373747 (ACS Med Chem Lett, 2020)

What was measured:
Histone deacetylase 3 = Histone deacetylase 3 (Homo sapiens, UniProt O15379); test: Inhibition of recombinant full length human HDAC3 expressed in baculovirus infected Sf9 cells using FAM-RHKK-Ac as substrate incubated for 3 hrs by electrophoretic mobility shift assay
[1] = biological target: T1, Protein deacetylase HDAC6 (Homo sapiens, UniProt Q9UBN7); test: Inhibition of recombinant full length human HDAC6 expressed in baculovirus infected Sf9 cells using FAM-RHKK-Ac as substrate incubated for 5 hrs by electrophoretic mobility shift assay
T1 sequence (Q9UBN7 whole entry): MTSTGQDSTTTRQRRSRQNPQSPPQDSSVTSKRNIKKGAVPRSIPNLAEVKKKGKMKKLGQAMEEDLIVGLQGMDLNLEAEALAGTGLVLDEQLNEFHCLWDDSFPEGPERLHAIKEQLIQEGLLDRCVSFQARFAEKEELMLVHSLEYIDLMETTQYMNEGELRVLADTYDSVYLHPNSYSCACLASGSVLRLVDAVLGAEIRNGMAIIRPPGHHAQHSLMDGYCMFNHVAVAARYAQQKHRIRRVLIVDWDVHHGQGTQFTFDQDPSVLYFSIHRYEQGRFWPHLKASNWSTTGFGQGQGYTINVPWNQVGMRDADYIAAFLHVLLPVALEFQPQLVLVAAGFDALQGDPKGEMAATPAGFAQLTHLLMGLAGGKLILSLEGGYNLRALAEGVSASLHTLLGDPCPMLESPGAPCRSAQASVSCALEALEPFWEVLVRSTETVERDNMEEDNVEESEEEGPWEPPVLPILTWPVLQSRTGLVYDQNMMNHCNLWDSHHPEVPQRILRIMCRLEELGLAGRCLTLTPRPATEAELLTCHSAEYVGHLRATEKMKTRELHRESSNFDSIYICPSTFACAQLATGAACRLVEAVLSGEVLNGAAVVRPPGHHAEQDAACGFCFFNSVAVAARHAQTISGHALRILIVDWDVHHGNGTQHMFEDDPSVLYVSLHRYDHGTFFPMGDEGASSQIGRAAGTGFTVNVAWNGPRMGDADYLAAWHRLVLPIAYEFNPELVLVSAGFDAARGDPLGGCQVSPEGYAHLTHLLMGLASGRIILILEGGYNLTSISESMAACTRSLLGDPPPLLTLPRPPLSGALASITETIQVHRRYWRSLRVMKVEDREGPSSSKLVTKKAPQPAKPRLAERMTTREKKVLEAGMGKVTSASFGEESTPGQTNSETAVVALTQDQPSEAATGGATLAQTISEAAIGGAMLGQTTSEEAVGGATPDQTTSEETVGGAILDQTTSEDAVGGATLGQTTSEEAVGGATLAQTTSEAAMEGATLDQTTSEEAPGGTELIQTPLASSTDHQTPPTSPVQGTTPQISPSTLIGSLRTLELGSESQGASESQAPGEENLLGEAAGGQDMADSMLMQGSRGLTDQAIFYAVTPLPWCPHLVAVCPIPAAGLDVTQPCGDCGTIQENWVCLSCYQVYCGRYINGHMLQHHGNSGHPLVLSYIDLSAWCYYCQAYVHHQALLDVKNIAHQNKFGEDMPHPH

Histone deacetylase 8 = biological target: T2, Histone deacetylase 8 (Homo sapiens, UniProt Q9BY41); test: Inhibition of recombinant full length human HDAC8 expressed in baculovirus infected Sf9 cells using FAM-RHKK-TFAc as substrate incubated for 3 hrs by electrophoretic mobility shift assay
T2 sequence (Q9BY41 whole entry): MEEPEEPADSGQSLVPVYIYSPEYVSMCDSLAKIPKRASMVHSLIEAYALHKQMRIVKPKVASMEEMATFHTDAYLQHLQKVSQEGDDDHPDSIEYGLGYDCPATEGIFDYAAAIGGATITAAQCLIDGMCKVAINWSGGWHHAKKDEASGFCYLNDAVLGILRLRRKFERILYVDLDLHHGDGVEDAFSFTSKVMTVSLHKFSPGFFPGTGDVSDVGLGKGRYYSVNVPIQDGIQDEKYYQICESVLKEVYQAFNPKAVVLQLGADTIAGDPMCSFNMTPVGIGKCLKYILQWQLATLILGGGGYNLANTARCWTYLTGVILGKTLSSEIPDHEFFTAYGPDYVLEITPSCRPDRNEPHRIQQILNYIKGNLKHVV

Histone deacetylase 11 = biological target: T3, Histone deacetylase 11 (Homo sapiens, UniProt Q96DB2); test: Inhibition of recombinant full length human HDAC11 expressed in baculovirus infected Sf9 cells using FAM-RHKK-TFAc as substrate incubated for 17 hrs by electrophoretic mobility shift assay
T3 sequence (Q96DB2 whole entry): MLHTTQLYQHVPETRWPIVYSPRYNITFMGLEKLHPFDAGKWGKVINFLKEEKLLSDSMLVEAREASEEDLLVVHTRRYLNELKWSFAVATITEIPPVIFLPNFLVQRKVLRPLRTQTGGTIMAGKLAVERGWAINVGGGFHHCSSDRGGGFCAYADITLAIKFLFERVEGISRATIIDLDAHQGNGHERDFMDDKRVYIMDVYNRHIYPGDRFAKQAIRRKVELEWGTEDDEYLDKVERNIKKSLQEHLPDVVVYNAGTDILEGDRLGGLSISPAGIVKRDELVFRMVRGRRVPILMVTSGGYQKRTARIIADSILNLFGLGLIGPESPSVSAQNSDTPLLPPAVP

[2] = biological target: T1, Protein deacetylase HDAC6; test: Inhibition of recombinant full length human HDAC6 expressed in baculovirus infected Sf9 cells assessed as inhibitory constant using FAM-RHKK-Ac as substrate incubated for 5 hrs by electrophoretic mobility shift assay
MV4-11 = test: Cytotoxicity against human MV4-11 cells assessed as reduction in cell viability incubated for 72 hrs by cell-titer blue assay; assay type: functional, cell-based; details: MV4-11, 72 h
MOLM-13 = test: Cytotoxicity against human MOLM13 cells assessed as reduction in cell viability incubated for 72 hrs by cell-titer blue assay; assay type: functional, cell-based; details: MOLM-13, 72 h
MDA-MB-231 = test: Cytotoxicity against human MDA-MB-231 cells assessed as reduction in cell viability incubated for 72 hrs by cell-titer blue assay; assay type: functional, cell-based; details: MDA-MB-231, 72 h
MDA-MB-468 = test: Cytotoxicity against human MDA-MB-468 cells assessed as reduction in cell viability incubated for 72 hrs by cell-titer blue assay; assay type: functional, cell-based; details: MDA-MB-468, 72 h
[3] = Cytotoxicity against human MRC9 cells assessed as reduction in cell viability incubated for 72 hrs by cell-titer blue assay; assay type: cell-based; details: MRC9, 72 h
Histone deacetylase 5 = Histone deacetylase 5 (Homo sapiens, UniProt Q9UQL6); test: Inhibition of recombinant full length human HDAC5 expressed in baculovirus infected Sf9 cells using FAM-RHKK-TFAc as substrate incubated for 3 hrs by electrophoretic mobility shift assay
Histone deacetylase 9 = Histone deacetylase 9 (Homo sapiens, UniProt Q9UKV0); test: Inhibition of recombinant human HDAC9 (604-1066 residues) expressed in baculovirus infected Sf9 cells using FAM-RHKK-TFAc as substrate incubated for 3 hrs by electrophoretic mobility shift assay
[4] = biological target: T4, Polyamine deacetylase HDAC10 (Homo sapiens, UniProt Q969S8); test: Inhibition of recombinant full length human HDAC10 expressed in baculovirus infected Sf9 cells using FAM-RHKK-Ac as substrate incubated for 17 hrs by electrophoretic mobility shift assay
T4 sequence (Q969S8 whole entry): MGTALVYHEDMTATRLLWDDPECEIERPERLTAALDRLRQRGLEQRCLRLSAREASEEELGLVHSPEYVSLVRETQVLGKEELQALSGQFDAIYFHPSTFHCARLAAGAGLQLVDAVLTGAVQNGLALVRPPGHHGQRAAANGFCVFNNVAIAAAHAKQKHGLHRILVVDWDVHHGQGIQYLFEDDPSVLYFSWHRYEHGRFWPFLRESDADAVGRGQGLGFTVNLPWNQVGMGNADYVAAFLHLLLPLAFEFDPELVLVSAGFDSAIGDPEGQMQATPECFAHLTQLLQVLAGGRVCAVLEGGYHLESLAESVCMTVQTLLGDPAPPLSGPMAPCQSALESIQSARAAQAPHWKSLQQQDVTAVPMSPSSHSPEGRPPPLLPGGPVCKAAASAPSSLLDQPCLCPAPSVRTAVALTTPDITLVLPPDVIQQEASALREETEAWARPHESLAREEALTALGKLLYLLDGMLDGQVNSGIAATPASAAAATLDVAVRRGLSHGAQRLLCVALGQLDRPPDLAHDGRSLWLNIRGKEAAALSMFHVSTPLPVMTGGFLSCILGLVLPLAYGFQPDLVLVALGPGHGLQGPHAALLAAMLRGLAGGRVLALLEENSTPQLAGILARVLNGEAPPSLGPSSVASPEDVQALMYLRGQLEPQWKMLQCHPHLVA

[5] = Efflux ratio of apparent permeability in human Caco2 cells incubated for 2 hrs by LC/MS analysis; assay type: ADME, cell-based, Caco-2; details: for efflux ratio at 2 h: Caco-2
[6] = Intrinsic clearance in ICR/CD1 mouse hepatocytes at 1 uM measured upto 120 mins by LCMS analysis; assay type: ADME, cell-based, Hepatocyte; details: 2 h
[7] = Protein binding in CD-1 mouse plasma at 1 uM incubated for 6 hrs by LCMS analysis; assay type: ADME, cell-free; details: mouse, 6 h, 1 µM
[8] = Stability in CD-1 mouse hepatocytes assessed as compound remaining at 1 uM measured up to 6 hrs by LCMS analysis; assay type: ADME, cell-based, Hepatocyte; details: CD-1, mouse, read-out: Stability
[9] = Apparent permeability from apical to basolateral side in human Caco2 cells incubated for 2 hrs by LC/MS analysis; assay type: ADME, cell-based, Caco-2; details: caco-2, 2 h

Chain of Histone deacetylase 3 (O15379 whole entry): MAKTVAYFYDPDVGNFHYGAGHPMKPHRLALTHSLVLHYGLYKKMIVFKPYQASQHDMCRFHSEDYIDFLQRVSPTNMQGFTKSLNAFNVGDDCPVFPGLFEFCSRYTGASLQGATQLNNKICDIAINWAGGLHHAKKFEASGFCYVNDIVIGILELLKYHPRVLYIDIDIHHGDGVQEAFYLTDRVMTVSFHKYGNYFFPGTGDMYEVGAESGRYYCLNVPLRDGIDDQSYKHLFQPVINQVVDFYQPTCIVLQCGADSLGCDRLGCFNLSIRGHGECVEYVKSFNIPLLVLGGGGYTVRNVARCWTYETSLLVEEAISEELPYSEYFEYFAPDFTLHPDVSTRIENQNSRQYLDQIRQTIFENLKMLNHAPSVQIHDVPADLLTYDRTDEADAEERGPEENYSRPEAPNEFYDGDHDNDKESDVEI
Chain of Histone deacetylase 5 (Q9UQL6 whole entry, the tested form may be a part): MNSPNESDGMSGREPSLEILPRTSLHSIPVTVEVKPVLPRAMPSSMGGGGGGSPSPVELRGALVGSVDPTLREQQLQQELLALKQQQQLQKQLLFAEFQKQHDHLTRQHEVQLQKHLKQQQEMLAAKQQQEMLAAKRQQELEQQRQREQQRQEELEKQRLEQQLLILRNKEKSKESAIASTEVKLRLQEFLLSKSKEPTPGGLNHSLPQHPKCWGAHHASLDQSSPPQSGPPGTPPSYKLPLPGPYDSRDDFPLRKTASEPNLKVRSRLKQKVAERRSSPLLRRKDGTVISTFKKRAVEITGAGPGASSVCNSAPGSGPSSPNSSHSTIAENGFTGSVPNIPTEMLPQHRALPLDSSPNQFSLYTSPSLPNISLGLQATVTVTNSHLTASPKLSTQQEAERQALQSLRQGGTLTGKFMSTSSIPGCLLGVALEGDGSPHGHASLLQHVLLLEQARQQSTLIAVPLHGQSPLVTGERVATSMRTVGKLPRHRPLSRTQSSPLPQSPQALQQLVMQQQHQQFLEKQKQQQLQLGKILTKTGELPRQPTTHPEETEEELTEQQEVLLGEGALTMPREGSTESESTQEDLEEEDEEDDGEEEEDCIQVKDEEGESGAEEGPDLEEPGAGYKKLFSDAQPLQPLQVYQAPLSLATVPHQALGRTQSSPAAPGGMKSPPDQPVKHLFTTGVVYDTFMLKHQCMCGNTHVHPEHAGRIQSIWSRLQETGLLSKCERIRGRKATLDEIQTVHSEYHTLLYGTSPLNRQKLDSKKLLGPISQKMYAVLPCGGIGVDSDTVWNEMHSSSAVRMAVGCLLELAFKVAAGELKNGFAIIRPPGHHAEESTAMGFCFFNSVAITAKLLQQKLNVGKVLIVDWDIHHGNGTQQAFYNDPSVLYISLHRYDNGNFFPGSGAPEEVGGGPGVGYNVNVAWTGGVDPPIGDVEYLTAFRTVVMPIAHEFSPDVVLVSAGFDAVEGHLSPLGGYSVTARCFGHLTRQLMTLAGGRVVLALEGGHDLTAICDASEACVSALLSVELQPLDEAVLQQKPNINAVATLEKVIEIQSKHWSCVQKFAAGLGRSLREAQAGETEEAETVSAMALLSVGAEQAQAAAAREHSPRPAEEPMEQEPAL
Chain of Histone deacetylase 9 (Q9UKV0 whole entry, the tested form may be a part): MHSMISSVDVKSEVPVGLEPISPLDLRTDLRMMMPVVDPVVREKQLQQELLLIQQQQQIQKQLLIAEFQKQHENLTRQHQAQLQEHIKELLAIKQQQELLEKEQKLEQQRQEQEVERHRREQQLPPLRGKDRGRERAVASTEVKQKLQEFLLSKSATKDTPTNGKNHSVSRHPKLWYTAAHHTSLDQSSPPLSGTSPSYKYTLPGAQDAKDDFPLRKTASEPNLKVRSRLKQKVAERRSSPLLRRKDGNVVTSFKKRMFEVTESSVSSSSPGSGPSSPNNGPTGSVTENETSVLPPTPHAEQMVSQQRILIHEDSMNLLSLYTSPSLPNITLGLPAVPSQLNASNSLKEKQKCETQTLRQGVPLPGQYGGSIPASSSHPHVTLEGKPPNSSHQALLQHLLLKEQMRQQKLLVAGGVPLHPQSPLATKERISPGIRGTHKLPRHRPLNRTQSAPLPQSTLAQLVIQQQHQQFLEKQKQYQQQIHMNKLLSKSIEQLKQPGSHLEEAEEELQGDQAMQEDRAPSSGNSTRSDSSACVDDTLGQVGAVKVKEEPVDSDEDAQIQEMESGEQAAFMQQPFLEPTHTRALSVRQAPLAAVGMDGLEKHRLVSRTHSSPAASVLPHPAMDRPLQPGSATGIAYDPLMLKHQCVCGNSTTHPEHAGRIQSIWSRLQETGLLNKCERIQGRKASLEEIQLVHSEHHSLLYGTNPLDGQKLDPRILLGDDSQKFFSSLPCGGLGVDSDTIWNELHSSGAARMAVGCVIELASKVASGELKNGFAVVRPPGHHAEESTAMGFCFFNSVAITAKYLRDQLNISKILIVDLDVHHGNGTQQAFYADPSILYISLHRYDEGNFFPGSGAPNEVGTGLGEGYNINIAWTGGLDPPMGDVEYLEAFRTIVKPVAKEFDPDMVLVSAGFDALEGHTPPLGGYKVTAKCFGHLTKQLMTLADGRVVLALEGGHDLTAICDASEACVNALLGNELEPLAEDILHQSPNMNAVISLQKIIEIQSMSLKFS

| IC50 (Histone deacetylase 3) [nM] | IC50 [1] [nM] | IC50 (Histone deacetylase 8) [nM] | IC50 (Histone deacetylase 11) [nM] | Ki [2] [nM] | IC50 (Histone deacetylase 5) [nM] | IC50 (Histone deacetylase 9) [nM] | IC50 [4] [nM] | CLH [6] [µL/min] | PPB [7] [%] | remaining at 6 h, 1 µM [8] [%] | Papp [9] [×10⁻⁶ cm/s] | Ratio ([5]; caco-2, 2 h) | SMILES | IC50 (MV4-11) [nM] | IC50 (MOLM-13) [nM] | IC50 (MDA-MB-231) [nM] | IC50 (MDA-MB-468) [nM] | IC50 [3] [nM] | efflux ratio at 2 h [5] |
| --- | --- | --- | --- | --- | --- | --- | --- | --- | --- | --- | --- | --- | --- | --- | --- | --- | --- | --- | --- |
| 503 | 110 | > 1000 | > 1000 | 451 |  |  |  |  |  |  |  |  | CC(C)(C)c1ccc(CNc2ccc(C(=O)NO)cc2)cc1 | 3490 | 9470 | > 25000 | > 25000 | 16100 |  |
| 132 | 1.49 | 90.6 | 51.9 | 1860 |  |  |  |  |  |  |  |  | O=C(NO)c1ccc(N(Cc2ccccc2)C(=O)CN(Cc2c(F)c(F)c(F)c(F)c2F)S(=O)(=O)c2ccc(F)cc2)cc1 | 5800 | 8050 |  |  |  |  |
| 374 | 28.2 | 635 | 837 | 201 |  |  |  |  |  |  |  |  | CC(C)(C)OC(=O)N(Cc1ccc(C(C)(C)C)cc1)c1ccc(C(=O)NO)cc1 | 3120 | 10300 | > 25000 | > 25000 | 9490 |  |
|  |  |  |  |  | 5.95 | 6.7 | 1.96 |  |  |  |  |  | Cn1cc(CNCC2CCN(c3ncc(C(=O)NO)cn3)CC2)c2ccccc21 [QUISINOSTAT] |  |  |  |  |  |  |
| 708 | 117 | 573 | > 1000 | 793 |  |  |  |  |  |  |  |  | CN(C(=O)CN(C)S(=O)(=O)c1ccc(F)cc1)c1ccc(C(=O)NO)cc1 | 14600 | 24800 |  |  |  |  |
|  |  |  |  |  |  |  |  |  |  |  |  |  | C[C@H]1O[C@@H](O[C@H]2[C@@H](O)C[C@H](O[C@H]3[C@@H](O)C[C@H](O[C@H]4CC[C@@]5(C)[C@H](CC[C@@H]6[C@@H]5C[C@@H](O)[C@]5(C)[C@@H](C7=CC(=O)OC7)CC[C@]65O)C4)O[C@@H]3C)O[C@@H]2C)C[C@H](O)[C@@H]1O [DIGOXIN] |  |  |  |  |  | 73 |
|  |  | > 1000 |  | 3600 |  |  |  | 36 | 99.6 | 20 | 0.27 | 3.83 | CC(C)(C)c1ccc(CN(C(=O)CN(Cc2c(F)c(F)c(F)c(F)c2F)S(=O)(=O)c2ccc(F)cc2)c2ccc(C(=O)NO)cc2)cc1 | 1880 | 2100 | 2620 | 4210 | 19200 |  |
| 372 | 52.8 | 28 | 665 | 293 |  |  |  |  |  |  |  |  | CC(C)(C)c1ccc(CN(C(=O)CNS(=O)(=O)c2ccc(F)cc2)c2ccc(C(=O)NO)cc2)cc1 | 3330 | 5110 |  | > 12500 | 10800 |  |
| 213 | 20.1 | 224 | > 1000 | 573 |  |  |  |  |  |  |  |  | CN(C(=O)CN(Cc1c(F)c(F)c(F)c(F)c1F)S(=O)(=O)c1ccc(F)cc1)c1ccc(C(=O)NO)cc1 | 3240 | 14100 | > 25000 | > 25000 | > 25000 |  |
|  |  |  |  |  |  |  |  |  |  |  |  |  | COCCc1ccc(OCC(O)CNC(C)C)cc1 (centres undefined) [METOPROLOL] |  |  |  |  |  | 1 |
| 213 | 27.7 | 133 | > 1000 | 1090 |  |  |  |  |  |  |  |  | CC(C)(C)c1ccc(CN(C(=O)CN(Cc2c(F)c(F)c(F)c(F)c2F)S(C)(=O)=O)c2ccc(C(=O)NO)cc2)cc1 | 1620 | 2980 | > 12500 | > 25000 | > 25000 |  |
| 492 | 55.2 | 37.9 | 697 | 768 |  |  |  |  |  |  |  |  | CN(CC(=O)N(Cc1ccc(C(C)(C)C)cc1)c1ccc(C(=O)NO)cc1)S(=O)(=O)c1ccc(F)cc1 | 3410 | 5460 | > 25000 | > 12500 | 11800 |  |
| 276 | 71.3 | 85.4 | > 1000 | 199 |  |  |  |  |  |  |  |  | CC(=O)N(Cc1ccc(C(C)(C)C)cc1)c1ccc(C(=O)NO)cc1 | 4240 | 10600 | > 25000 | > 25000 |  |  |
